# Laboratory results as given in ChEMBL document CHEMBL1155870, “Design and synthesis of novel oxazole containing 1,3-dioxane-2-carboxylic acid derivatives as PPAR alpha/gamma dual agonists” (Bioorg Med Chem, 2008).
# Calls of active or inactive are those of the source. No cut-off for these calls is given here.
# Experiments:
# [1] = target: T1, Peroxisome proliferator-activated receptor alpha (Homo sapiens, UniProt Q07869); experiment: Agonist activity at PPARalpha expressed in human HepG2 cells assessed as induction of receptor transactivation by reporter gene assay relative to control; assay type: functional, cell-based
# T1 sequence (Q07869 whole entry): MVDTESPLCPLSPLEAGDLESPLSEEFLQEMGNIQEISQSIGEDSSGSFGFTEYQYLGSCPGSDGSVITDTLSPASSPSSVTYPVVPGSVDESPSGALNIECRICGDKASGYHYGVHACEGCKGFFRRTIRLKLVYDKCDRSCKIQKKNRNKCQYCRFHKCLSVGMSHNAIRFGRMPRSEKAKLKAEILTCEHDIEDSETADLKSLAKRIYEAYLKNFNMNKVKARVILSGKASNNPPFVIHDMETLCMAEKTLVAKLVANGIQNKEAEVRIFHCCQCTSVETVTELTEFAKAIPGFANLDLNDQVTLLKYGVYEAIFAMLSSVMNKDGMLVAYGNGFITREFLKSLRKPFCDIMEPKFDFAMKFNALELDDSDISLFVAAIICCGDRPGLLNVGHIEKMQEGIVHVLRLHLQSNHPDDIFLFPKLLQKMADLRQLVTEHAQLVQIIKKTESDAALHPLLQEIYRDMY
# [2] = target: T2, Peroxisome proliferator-activated receptor alpha (Homo sapiens) (UniProt Q07869); experiment: Agonist activity at PPARalpha expressed in human HepG2 cells at 10 uM assessed as induction of receptor transactivation by reporter gene assay relative to control; assay type: functional, cell-based
# T2 sequence (whole entry): T1 sequence (Q07869 whole entry)
# [3] = target: T3, Peroxisome proliferator-activated receptor gamma (Homo sapiens, UniProt P37231)
# T3 sequence (P37231 whole entry): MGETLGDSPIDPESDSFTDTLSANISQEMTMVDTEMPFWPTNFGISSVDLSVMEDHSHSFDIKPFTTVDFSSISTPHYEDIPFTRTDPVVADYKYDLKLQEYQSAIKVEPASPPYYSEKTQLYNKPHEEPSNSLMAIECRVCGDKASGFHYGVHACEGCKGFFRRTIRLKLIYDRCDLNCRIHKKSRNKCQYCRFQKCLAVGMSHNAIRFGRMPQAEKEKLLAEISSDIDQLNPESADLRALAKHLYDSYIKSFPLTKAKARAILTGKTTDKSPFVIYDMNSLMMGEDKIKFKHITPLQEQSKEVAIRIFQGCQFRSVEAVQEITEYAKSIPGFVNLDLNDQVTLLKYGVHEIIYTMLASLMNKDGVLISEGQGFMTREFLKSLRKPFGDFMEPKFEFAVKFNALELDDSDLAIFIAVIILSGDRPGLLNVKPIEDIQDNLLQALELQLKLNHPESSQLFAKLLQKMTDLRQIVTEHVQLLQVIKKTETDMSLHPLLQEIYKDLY
# Description: Agonist activity at PPARgamma expressed in human HepG2 cells assessed as induction of receptor transactivation by reporter gene assay relative to control
# [4] = system: Mus musculus; experiment: Hypoglycemic activity in db/db mouse assessed as reduction in plasma glucose level at 3 mg/kg/day, po for 6 days; assay type: functional; design: scale not given: the % may be the effect or the level left
# [5] = system: Rattus norvegicus; experiment: Hypoglycemic activity in Zucker diabetic fa/fa rat assessed as improvement in glucose AUC at 3 mg/kg/day, po for 14 days; assay type: functional
# [6] = system: Mus musculus; experiment: Hypolipidemic activity in db/db mouse assessed as reduction in triglyceride level at 3 mg/kg/day, po for 6 days; assay type: functional; design: scale not given: the % may be the effect or the level left
# [7] = system: Rattus norvegicus; experiment: Hypolipidemic activity in Zucker diabetic fa/fa rat assessed as reduction in total cholesterol level at 3 mg/kg/day, po for 14 days; assay type: functional; design: scale not given: the % may be the effect or the level left
# [8] = system: Rattus norvegicus; experiment: Hypolipidemic activity in Zucker diabetic fa/fa rat assessed as reduction in triglyceride level at 3 mg/kg/day, po for 14 days; assay type: functional; design: scale not given: the % may be the effect or the level left
# [9] = system: Rattus norvegicus; experiment: Insulin sensitizing activity in Zucker diabetic fa/fa rat assessed as reduction in fasted insulin level at 3 mg/kg/day, po for 14 days; assay type: functional; design: scale not given: the % may be the effect or the level left
# [10] = Half life in Wistar rat at 30 mg/kg, po; assay type: ADME, organism-based; design: dose 30 mg/kg, route oral; conditions: in vivo
# [11] = AUC (0 to infinity) in Wistar rat at 30 mg/kg, po; assay type: ADME, organism-based; design: time infinity, dose 30 mg/kg, route oral; conditions: plasma
# [12] = Tmax in Wistar rat at 30 mg/kg, po; assay type: ADME, organism-based; design: dose 30 mg/kg, route oral; conditions: in vivo
# [13] = Cmax in Wistar rat at 30 mg/kg, po; assay type: ADME, organism-based; design: dose 30 mg/kg, route oral; conditions: in vivo
# [14] = system: Mus musculus; experiment: Hypoglycemic activity in db/db mouse assessed as reduction in plasma glucose level at 30 mg/kg/day, po for 6 days; assay type: functional, organism-based; design: route oral; scale not given: the % may be the effect or the level left
Compound,EC50 [1],fold change (FC) [2],EC50 [3],also measured
Cc1ccc(-c2nc(CCOc3ccc(C[C@H]4CO[C@@](C)(C(=O)O)OC4)cc3)c(C)o2)s1,0.03 nM,6.8,239 nM,
Cc1oc(C(C)(C)C)nc1COc1ccc(C[C@H]2CO[C@@](C)(C(=O)O)OC2)cc1,,2.3,,
Cc1ccc(-c2nc(CCOc3ccc([C@H]4CO[C@@](C)(C(=O)O)OC4)cc3)c(C)o2)cc1,,,,Activity [2]: inactive
CCO[C@@H](Cc1ccc(OCCc2ccc(OS(C)(=O)=O)cc2)cc1)C(=O)O [TESAGLITAZAR],,,,Activity [4]: 54%; Activity [5]: 51%; Activity [6]: 60%; Activity [7]: 16%; Activity [8]: 67%; Activity [9]: 91%
Cc1oc(-c2ccccc2)nc1COc1ccc(C[C@H]2CO[C@@](C)(C(=O)O)OC2)cc1,1.09 nM,6.5,96 nM,
Cc1ccc(-c2nc(COc3ccc([C@H]4CO[C@@](C)(C(=O)O)OC4)cc3)c(C)o2)cc1,,2.7,,
Cc1ccc(-c2nc(COc3ccc(C[C@H]4CO[C@@](C)(C(=O)O)OC4)cc3)c(C)o2)s1,0.6 nM,5.6,19.8 nM,
Cc1oc(-c2ccccc2)nc1CCOc1ccc([C@H]2CO[C@@](C)(C(=O)O)OC2)cc1,,3,,
Cc1ccc(-c2nc(CCOc3ccc(C[C@H]4CO[C@@](C)(C(=O)O)OC4)cc3)c(C)o2)cc1,0.089 nM,6.3,1380 nM,
Cc1ccc(-c2nc(COc3ccc(C[C@H]4CO[C@@](C)(C(=O)O)OC4)cc3)c(C)o2)cc1,0.072 nM,8.2,15 nM,Activity [4]: 57%; Activity [5]: 51%; half-life [10]: 2.7 h; Activity [6]: 50%; Activity [7]: 30%; AUC(0-inf) [11]: 351 µg·h/mL; Activity [8]: 71%; Tmax [12]: 1.7 h; Activity [9]: 77%; Cmax [13]: 54 µg/mL
Cc1oc(-c2ccccc2)nc1COc1ccc([C@H]2CO[C@@](C)(C(=O)O)OC2)cc1,,3,,
CN(CCOc1ccc(CC2SC(=O)NC2=O)cc1)c1ccccn1 (stereo not given) [ROSIGLITAZONE],,,,Activity [14]: 54%
Cc1ccc(-c2nc(CCCOc3ccc(C[C@H]4CO[C@@](C)(C(=O)O)OC4)cc3)c(C)o2)cc1,,1.8,,
Cc1oc(-c2ccccc2)nc1CCOc1ccc(C[C@H]2CO[C@@](C)(C(=O)O)OC2)cc1,0.272 nM,5.3,4100 nM,
Cc1cccc(Nc2cc(Cl)nc(SCC(=O)O)n2)c1C,,4.4,,
Cc1oc(C(C)(C)C)nc1CCOc1ccc(C[C@H]2CO[C@@](C)(C(=O)O)OC2)cc1,4.2 nM,5.8,5010 nM,
